The results in this text go back to patent publication US20230265037A1, “METHOD FOR MAN[…] CALCIUM CITRATE BY USING SHELL AND APPLICATION THEREOF” (KOREA RESEARCH INSTITUTE OF CHEMICAL TECHNOLOGY, priority 2020, published 2023).

The experiment in a line: Fluorine removal experiment (residual fluorine concentration of filtrate by ion concentration meter). Particulars: for removal rate: HF solution 1,000 ppm (experimental value 970 ppm), reacted 30 minutes. As for the experimental part:
In order to confirm the fluorine removal rate using the powder or solution prepared in Examples 1 to 3, a fluorine removal experiment was performed by the following method, and the residual fluorine concentration of the filtrate remaining after the experiment was measured using an ion concentration meter and is shown in Tables 2 to 4. At this time, a Metrohm 930 compact IC Flex model from Metrohm was used as the ion concentration meter.
A 50% hydrofluoric acid (HF) solution with a concentration of 1,000 ppm was prepared, and so that the molar ratio of calcium ion:fluoride ion is 1:2, 2:2, 10.56 g and 21.12 g of the mono calcium citrate powder recovered in Example 1 were mixed with 1 L of water to make a solution, the hydrofluoric acid and the solution were reacted for 30 minutes, and the results are shown in Table 2.
A 50% hydrofluoric acid (HF) solution with a concentration of 1,000 ppm was prepared, 4.75 g, 9.5 g, and 19.1 g of the tricalcium citrate powder recovered in Example 2 were mixed with 1 L of water so that the molar ratio of calcium ion:fluoride ion was 1:2, 2:2, and 4:2 to form a slurry, the hydrofluoric acid and the slurry were reacted for 30 minutes, and the results are shown in Table 3. (Tricalcium citrate (C12H10Ca3O14) contains 3 moles of calcium ions per mole, so ⅓ of the theoretical amount is added.)
A 50% hydrofluoric acid (HF) solution with a concentration of 1,000 ppm was prepared, the solution in which the shells and citric acid were dissolved prepared in Example 3 was mixed with 1 L of water and reacted for 30 minutes, and the results are shown in Table 4.

Where [1] appears, read: molar ratio calcium ion:fluoride ion 1:2.
Setting [2] is: molar ratio calcium ion:fluoride ion 2:2.

Values joined by “and” are separate entries in the source; they are usually repeats but may differ in a detail not shown here. Equal entries are not always repeated.

As for `O=C([O-])CC(O)(CC(=O)[O-])C(=O)[O-].O=C([O-])CC(O)(CC(=O)[O-])C(=O)[O-].[Ca+2].[Ca+2].[Ca+2]` [Example 2, tricalcium citrate], the removal rate under setting [1] worked out at 97.63%; the removal rate under setting [2] is 98.33%; the removal rate (molar ratio calcium ion:fluoride ion 4:2) was 98.28% and 98.29%.
Consider `O=C([O-])CC(O)(CC(=O)O)C(=O)O.O=C([O-])CC(O)(CC(=O)O)C(=O)O.[Ca+2]` [Example 1, mono calcium citrate], for which the removal rate is, setting by setting: under setting [1], 99.25%; under setting [2], 99.77%. For the same compound, the “fluorine removal rate (summary)” value (summary of Tables 2 and 3) is listed as ≥ 99%.
